Experiment: Tissue distribution by quantitative whole-body autoradiography (QWBA)
Type: in vivo, male Sprague Dawley and Long-Evans rats
Settings: for AUCall Ratio (PO/IV) / Cmax Ratio (PO/IV): 15 mg/kg, Group 7 vs Group 4
Protocol: The study utilized 4 groups of male SD rats (albino), and 3 groups of male LE rats (pigmented); a total of 39 rats. All animals were obtained from Hilltop Lab Animals, Inc. (Scottdale, Pa.). […] Rats in Group 5 were administered a single 2-h IV infusion of [^14C]brincidofovir at a target dose of 2 mg/kg. […] Three dosing formulations (one for high dose IV, one for low dose IV, and one for PO dose) were prepared at QPS on the day of dosing. The IV formulation for Groups 1, 2, 3, and 4 contained a vehicle of 10 mM sodium phosphate buffer in 5% dextrose solution at pH 8.0(±0.1).
Each animal, at their respective termination time points, was euthanized for QWBA analysis immediately after blood collection. One rat per time point per Group was euthanized as listed below.
The blood samples were maintained on wet ice (approximately 4° C.) and then centrifuged to obtain plasma within 1 h of the blood collection time. Centrifuge settings were recorded in the study notebook. Duplicate aliquots of plasma (0.050 mL) were analyzed for radioactivity using direct counting by LSC, and residual plasma was stored at approximately −70° C. and was saved for possible future analysis under a separate study protocol. Residual red blood cells were discarded as radioactive waste.
The pinna, distal limbs, hair, and tail were removed from each frozen carcass and each frozen carcass was embedded in an aqueous suspension of approximately 2% (w/v) carboxymethylcellulose and frozen into a block. The blocks were stored at approximately −20° C. prior to sectioning. Each blocked carcass was mounted on the object stage of a cryomicrotome (Leica CM3600 Cryomacrocut, Nussloch, Germany and Vibratome 9800, St. Louis, Mo.) maintained at approximately −20° C. and internal standards (3), which were plasma fortified with [^14C]-glucose at one concentration (approximately 0.05 μCi/mL), were placed into the frozen blocks, prior to sectioning, and were used for section thickness quality control. A number of whole-body sections (approximately 40 μm thick) were taken in the sagittal plane at various levels of interest using a whole-body cryomicrotome set at −20° C. Sagittal sections (20-50 μm thick) of frozen carcasses were exposed to phosphor imaging plates. Regions of images in tissues were converted to concentrations using standards. All of the major tissues, organs, and biological fluids were represented.
Tissue concentration data was determined for the following tissues and/or contents: adipose (brown and white), adrenal gland, bile (in duct), blood (cardiac), bone, bone marrow, brain (cerebrum, cerebellum, medulla), cecum (and contents), large intestine (and contents), epididymis, esophagus, eye (uvea and lens), Harderian gland, heart, kidney (cortex and medulla), liver, lung, lymph node, pancreas, pituitary gland, prostate gland, salivary gland, seminal vesicles, skeletal muscle, skin (pigmented and non-pigmented), small intestine (and contents), stomach (gastric mucosa and contents), spleen, spinal cord, testis, thymus, thyroid, and urinary bladder (and contents).
The imaging plate and sections were placed in light-tight exposure cassettes, in a copper-lined lead safe, for a 4-day exposure at room temperature. […] Quantification was performed by image densitometry using MCD image analysis software (v. 7.0, Interfocus Imaging Ltd) and a standard curve constructed from the integrated response [i.e., Molecular Dynamics Counts per square millimeter (MDC/mm^2)] and the nominal concentrations of the ^14C-calibration standards. The concentrations of radioactivity were expressed as the μg equivalents of [^14C]brincidofovir per gram sample (μg equiv/g). A lower limit of quantification (LLOQ) was applied to the data (See section 6.7.4).
Tissue concentrations that fell below the LLOQ were identified as being below the quantification limit (BQL). Tissue areas that were not visualized on autoradiographic images were identified as no sample (NS) and reported as BQL.

SMILES: CCCCCCCCCCCCCCCCOCCCOP(=O)(O)CO[C@H](CO)Cn1ccc(N)nc1=O [[^14C] brincidofovir]
- AUCall (Cecum, 2 h IV infusion 15 mg/kg, Group 4): 360.7580 μg equiv · h/g
- Tissue Concentration (168 h) (Cecum, 2 h IV infusion 15 mg/kg, Group 4, LLOQ 0.036): 0.08 μg equiv/g
- Tissue Concentration (168 h) (Cecum, PO 15 mg/kg, Group 7, LLOQ 0.034): 0.137 μg equiv/g
- AUCall (Cecum, PO 15 mg/kg, Group 7): 174.4118 μg equiv · h/g
- AUCall Ratio (PO/IV) (Epididymis): 0.33
- Cmax Ratio (PO/IV) (Epididymis): 0.16
- AUCall (Epididymis, 2 h IV infusion 15 mg/kg, Group 4): 95.0160 μg equiv · h/g
- Tissue Concentration (168 h) (Epididymis, 2 h IV infusion 15 mg/kg, Group 4, LLOQ 0.036): 0.129 μg equiv/g
- Tissue Concentration (168 h) (Epididymis, PO 15 mg/kg, Group 7, LLOQ 0.034): 0.042 μg equiv/g
- AUCall (Epididymis, PO 15 mg/kg, Group 7): 31.1150 μg equiv · h/g
- AUCall Ratio (PO/IV) (Esophagus): 0.38
- Cmax Ratio (PO/IV) (Esophagus): 1.89
- AUCall (Esophagus, 2 h IV infusion 15 mg/kg, Group 4): 73.1850 μg equiv · h/g
- Tissue Concentration (168 h) (Esophagus, 2 h IV infusion 15 mg/kg, Group 4, LLOQ 0.036): 0.041 μg equiv/g
- Tissue Concentration (168 h) (Esophagus, PO 15 mg/kg, Group 7, LLOQ 0.034): BQL
- AUCall (Esophagus, PO 15 mg/kg, Group 7): 27.9015 μg equiv · h/g
- AUCall (Eye (lens), 2 h IV infusion 15 mg/kg, Group 4): 0.1545 μg equiv · h/g
- Tissue Concentration (168 h) (Eye (lens), 2 h IV infusion 15 mg/kg, Group 4, LLOQ 0.036): BQL
- Tissue Concentration (168 h) (Eye (lens), PO 15 mg/kg, Group 7, LLOQ 0.034): BQL
- AUCall Ratio (PO/IV) (Eye (uveal tract)): 0.32
- Cmax Ratio (PO/IV) (Eye (uveal tract)): 0.43
- AUCall (Eye (uveal tract), 2 h IV infusion 15 mg/kg, Group 4): 51.5575 μg equiv · h/g
- Tissue Concentration (168 h) (Eye (uveal tract), 2 h IV infusion 15 mg/kg, Group 4, LLOQ 0.036): BQL
- Tissue Concentration (168 h) (Eye (uveal tract), PO 15 mg/kg, Group 7, LLOQ 0.034): BQL
- AUCall (Eye (uveal tract), PO 15 mg/kg, Group 7): 16.2765 μg equiv · h/g
- AUCall Ratio (PO/IV) (Harderian Gland): 0.25
- Cmax Ratio (PO/IV) (Harderian Gland): 0.12
- AUCall (Harderian Gland, 2 h IV infusion 15 mg/kg, Group 4): 257.6905 μg equiv · h/g
- Tissue Concentration (168 h) (Harderian Gland, 2 h IV infusion 15 mg/kg, Group 4, LLOQ 0.036): 0.403 μg equiv/g
- Tissue Concentration (168 h) (Harderian Gland, PO 15 mg/kg, Group 7, LLOQ 0.034): 0.11 μg equiv/g
- AUCall (Harderian Gland, PO 15 mg/kg, Group 7): 63.7645 μg equiv · h/g
- AUCall Ratio (PO/IV) (Heart): 0.54
- Cmax Ratio (PO/IV) (Heart): 0.15
- AUCall (Heart, 2 h IV infusion 15 mg/kg, Group 4): 58.1205 μg equiv · h/g
- Tissue Concentration (168 h) (Heart, 2 h IV infusion 15 mg/kg, Group 4, LLOQ 0.036): 0.062 μg equiv/g
- Tissue Concentration (168 h) (Heart, PO 15 mg/kg, Group 7, LLOQ 0.034): 0.045 μg equiv/g
- AUCall (Heart, PO 15 mg/kg, Group 7): 31.1603 μg equiv · h/g
- AUCall Ratio (PO/IV) (Kidney Cortex): 0.42
- Cmax Ratio (PO/IV) (Kidney Cortex): 0.18
- AUCall (Kidney Cortex, 2 h IV infusion 15 mg/kg, Group 4): 1919.6850 μg equiv · h/g
- Tissue Concentration (168 h) (Kidney Cortex, 2 h IV infusion 15 mg/kg, Group 4, LLOQ 0.036): 0.33 μg equiv/g
- Tissue Concentration (168 h) (Kidney Cortex, PO 15 mg/kg, Group 7, LLOQ 0.034): 0.342 μg equiv/g
- AUCall (Kidney Cortex, PO 15 mg/kg, Group 7): 804.4980 μg equiv · h/g
- AUCall Ratio (PO/IV) (Kidney Medulla): 0.48
- Cmax Ratio (PO/IV) (Kidney Medulla): 0.34
- AUCall (Kidney Medulla, 2 h IV infusion 15 mg/kg, Group 4): 717.8445 μg equiv · h/g
- Tissue Concentration (168 h) (Kidney Medulla, 2 h IV infusion 15 mg/kg, Group 4, LLOQ 0.036): 0.138 μg equiv/g
- Tissue Concentration (168 h) (Kidney Medulla, PO 15 mg/kg, Group 7, LLOQ 0.034): 0.201 μg equiv/g
- AUCall (Kidney Medulla, PO 15 mg/kg, Group 7): 342.0130 μg equiv · h/g
- AUCall Ratio (PO/IV) (Large Intestine): 0.45
- Cmax Ratio (PO/IV) (Large Intestine): 0.61
- AUCall (Large Intestine, 2 h IV infusion 15 mg/kg, Group 4): 310.7965 μg equiv · h/g
- Tissue Concentration (168 h) (Large Intestine, 2 h IV infusion 15 mg/kg, Group 4, LLOQ 0.036): 0.103 μg equiv/g
- Tissue Concentration (168 h) (Large Intestine, PO 15 mg/kg, Group 7, LLOQ 0.034): 0.06 μg equiv/g
- AUCall (Large Intestine, PO 15 mg/kg, Group 7): 140.3313 μg equiv · h/g
- AUCall Ratio (PO/IV) (Liver): 0.66
